Data published in patent US20230120666A1, “EXCIPIENTS PROVIDING STABILIZATION AND ENHANCED WATER SOLUBILIZATION AND THEIR USES” (priority 2020, published 2023).
“Also recorded” adds a separate entry of the source.

Key:
[1] = CBD water solubility / solubility enhancement by UV-Visible spectrometry; format: physicochemical; details: for solubility: thermodynamic from solid
Experimental: The General Method used to determine the solubility of CBD is as follows:
Water (1 mL) was added to one of the vials. […] A third vial was prepared with 100 mg of the agent, 1 mL of water, and no CBD for use as a background standard for correcting UV-visible spectra. All three vials were processed (ultrasound) together to minimize variations.
CBD solubility was determined by UV-Visible spectrometry.
Three methods were used for background subtraction: • 1. For agents with very little color, the CBD is seen as a peak on the side of a peak that can be readily measured by drawing a tangent line on the interfering peak to estimate a baseline. This is usable for pure samples, such as the commercial cyclodextrins. • 2. […] For strongly colored agents, small deviations in concentration can overwhelm the CBD signal. In these cases, the full spectra are measured and the standard is multiplied by a weighting factor before subtraction. The weighting factor is adjusted to give close to a zero absorbance at many wavelengths across the difference spectrum and the CBD spectrum is what remains.
CBD concentration is calculated as the absorbance at 274 nm in excess of the retentate absorbance relative to the absorbance of the CBD standard. Abs means absorbance in Table 1.

[2] = Storage stability of 20 wt % SupraPlex formulations in sealed plastic vial at RT; format: physicochemical; details: loaded in 20 wt % Run #65 in DI water, pH 2.5±0.5, sealed poly(propylene) vial, 12 months
[3] = In vitro dissolution of Polymer Adducts and Hybrid Excipients; format: physicochemical; details: 0.1 N HCl pH 1.2, SGF pH 1.2, PB pH 6.8, SIF pH 6.8; 37±0.5° C.
Experimental: Simulated Gastric Fluid (SGF pH 1.2), Phosphate Buffer (PB pH 6.8) and Simulated Intestinal Fluid (SIF pH 6.8) as dissolution medium. […] At predetermined time intervals, 1 mL samples were withdrawn and replenished with the same volume of fresh medium. The RSV and CBD content in these samples were determined by using a UV-visible Spectrophotometer (U-3010, Hitachi, Japan) and specific amounts of RSV and CBD dissolved and were monitored and estimated as a function of time.
This multiple, hybrid excipient was then lyophilized and used for dissolution studies.

healthy male volunteers = assay: In vivo human oral ingestion study of CBD-SupraPlex excipient; details: for effects experienced within 15-30 min after ingestion: CBD-SupraPlex (Run #181) 35.6 μg/mL in DI water
Experimental: A highly documented “in house” CBD-SupraPlex® human oral ingestion study was performed to further evaluate the SupraPlex® Excipients in humans. This study involved two healthy male volunteers: Subject #1 was […], 5′10″, 190 lbs., […] an experienced CBD/THC consumer, and Subject #2 was […], 5′6″, 160 lbs., a naïve, and a THC/CBD non consumer […]).
The CBD-SupraPlex® excipient samples were prepared under sanitary, GLP conditions. All CBD dose concentrations were confirmed by standard HPLC protocols.
The CBD-SupraPlex® excipient samples used for oral ingestion were administered sequentially in three, 10 mL ingestion portions as clear, transparent DI aqueous solutions. The 1st portion was ingested in a sublingual mode and last two portions were ingested by normal swallowing. The esthetic taste features of CBD-SupraPlex® excipient (pH2), in DI water were: sour, citrus-lemon, (80% lemon-10% salt taste), slight terpene, slippery film like texture, but with no after taste. When used in ginger ale, it gave a very pleasant taste. At pH4, the sourness is eliminated to give a pleasant slight lemon taste.
Test 1: 10 mL containing 35.6 μg/mL of CBD in DI water, sublingual over 15 min. Test 2: 15 min. after Test 1, 10 mL/35.6 μg/mL of CBD in DI water, normal swallow over 15 min. Total CBD ingested=712 μg in 20 mL DI water over 30 min. Test 3: 15 min. after Test 2, repeat of Test 2 Total CBD ingested=1068 μg in 30 mL DI water over 45 min. Test 4: 2 days later, 40 mL/35.6 μg/mL of CBD in DI water, normal swallow before evening sleep. […] Subject #1 could rarely experience more than 4 hr. normal sleeper night, but after Test 4 they took a 35.6 μg/mL of CBD in 40 mL DI water, sublingual before sleep 2 days after Test 4. When taken before bedtime, about 1 mg CBD dose level gave an excellent, sustained 7-8 hr. sleep cycle with a rested, clear-headed wake-up, no fogginess or after effect.

[4] = Koch et al. 2020, cited from earlier work
[5] = CBD water solubility / solubility enhancement by UV-Visible spectrometry; format: physicochemical; details: CBD 1 g in 100 mL water, Qsonica Q2000 1 hr at 100% amplitude, no excipient
[6] = literature value, Modasiya et al. 2012; cited from earlier work
[7] = Excipient assisted resveratrol water solubility enhancement; format: physicochemical; details: water with the Excipients of the invention (PHC), aqueous with cosolvent or surfactant or cyclodextrin, thermodynamic from solid
Description: They were then examined to determine specific water solubility enhancement properties as a function of excipient composition and reaction parameters used for their syntheses.

[8] = literature value, Chauhan et al.; cited from earlier work

## C=C(C)[C@@H]1CCC(C)=C[C@H]1c1c(O)cc(CCCCC)cc1O [CBD, cannabidiol]
[1]; in the presence of naked 2HPBCD
  increased solubility of CBD: 2508.7 fold
[1]; in the presence of naked ACD
  increased solubility of CBD: 3066.2 fold
[1]; in the presence of naked GCD
  increased solubility of CBD: 278.7 fold
[1]; sonication protocol in DI water, no excipient
  increased solubility of CBD: 313.6 fold
[1]; water with the Excipients of the invention, aqueous with cosolvent or surfactant or cyclodextrin, read-out: water solubility of CBD, enhanced
  solubility: 500 to 15100 µg/mL
[1]; water, high power sonication, read-out: Water Solubility of CBD
  solubility: 31 µg/mL
[1]; water, low power sonication, read-out: Water Solubility of CBD
  solubility: 0.4 µg/mL
[1]; with Run #1 retentate (Example 1), baseline not stated
  increased solubility of CBD: 2717.8 fold
[1]; with Run #3 retentate (Example 2), baseline not stated
  increased solubility of CBD: 2673.2 fold
[1]; with Run #4 retentate (Example 3), baseline not stated
  increased solubility of CBD: 4843.2 fold
[1]; with Run #12 insoluble nanosponge suspension (Example 5), baseline not stated
  increased solubility of CBD: 3797.9 fold
[1]; with Run #19 retentate (Example 4), baseline not stated
  increased solubility of CBD: 4634.1 fold
[2]
  solution depletion: essentially no solution depletion
[3]
  in vitro dissolution performance: saturation and incomplete dissolution profiles; also recorded: insoluble
Healthy male volunteers; Subject #1, about 1 mg CBD as CBD-SupraPlex (Run #181) before bedtime
  sustained sleep cycle: 7 to 8 h
Healthy male volunteers; Subject #1, experienced consumer
  effects experienced within 15-30 min after ingestion: tingling in fingers, heightened focus, higher energy, relaxed feeling, reduced anxiety, some thirst noted
Healthy male volunteers; Subject #2, naïve non consumer
  effects experienced within 15-30 min after ingestion: peaceful, relaxed, reduced anxiety, remained alert/coordinated, enhanced talking, laughing, higher energy movement, then some drowsiness after 1 hr.
[4]; literature value
  CBD in water alone: 0.0000627 mg/mL
[4]; no sonication
  Water Solubility of CBD: 0.0627 µg/mL
[5]
  μg-CBD: 31.36 µg

## COc1cc(/C=C/C(=O)CC(=O)/C=C/c2ccc(O)c(OC)c2)ccc1O [curcumin]
[2]
  solution depletion: essentially no solution depletion
[6]
  naked curcumin solubility in DI water: 2.67 µg/mL

## Oc1ccc(C=Cc2cc(O)cc(O)c2)cc1 [resveratrol]
[7]
  solubility: 5010 to 30600 µg/mL
[2]
  solution depletion: essentially no solution depletion
[3]
  in vitro dissolution performance: saturation and incomplete dissolution profiles
[8]
  naked resveratrol solubility in DI water: 0.04 µg/mL
